Measured values as given in PMC9732821, “Neurotrophic Activity and Its Modulation by Zinc Ion of a Dimeric Peptide Mimicking the Brain-Derived Neurotrophic Factor N-Terminal Region” (ACS Chemical Neuroscience, 2022).

Columns and labels:
ERK = experiment: competition experiments, ERK phosphorylation with BDNF plus d-bdnf in differentiated SH-SY5Y cells; assay type: cell-based, human; settings: BDNF 1 nM + d-bdnf 10 nM-100 µM, or d-bdnf 10 µM + BDNF 0.074 nM–10 nM; 10 min; 2 independent replicas
Excerpt: The possibility of mimicking the function of the full-length BDNF protein by using a linear peptide fragment encompassing the first 12 amino acids of the mature NT N-terminal was already postulated.[31] Here, we named this sequence as m-bdnf (Figure 1A) and performed a systematic comparison between the performance of the full-length human BDNF produced recombinantly in Escherichia coli([32]) and (i) m-bdnf, (ii) a dimeric peptide displaying two copies of the m-bdnf sequence covalently bound by a disulfide bridge (d-bdnf), and (iii) a monomeric peptide displaying the scrambled sequence of m-bdnf (s-bdnf). We first investigated the ability of these peptides to activate the TrkB receptor. […] Specifically, an EC50 concentration of BDNF (1 nM) or of d-bdnf (10 μM) was used in combination with the increasing concentration of d-bdnf and BDNF, respectively, and the increase of ERK phosphorylation was assessed. […] Of note, we also performed a non-permeabilizing immunofluorescence analysis to quantify the membrane-bound BDNF in differentiated SH-SY5Y cells in the absence or presence of BDNF and d-bdnf (Figure S1C,D). […] The same increment was not observed upon treatment with the d-bdnf peptide, while instead we measured a slight (∼18%) decrease of the signal possibly due to the ability of the peptide to displace endogenous BDNF at the tested dose (10 μM). […]

[1] = potentiometric titration, Zn^2+ complex stability constants; assay type: binding; settings: 298 K, 0.1 M KNO3, metal/ligand 0.9:1 to 2.2:1
Experimental: Potentiometric measurements were carried out to give insight into the coordination environment of Zn^2+ bound to the d-bdnf peptide (Figure S5). […] The four protonation equilibria of the aspartic and glutamic residues partly overlap but, in agreement with the literature data, the aspartic β-carboxylic group is more acidic than glutamic γ-carboxylic one.[48] The potentiometric titrations were carried out exploring 0.9:1 and 2.2:1 metal to ligand molar ratio. […] The peptide forms two complex species, [ZnLH] and [ZnL]. The first one is the predominant at pH = 6, and the calculated stability constant value [logK(111) = logβ(111) – logK(011) = 5.71] indicates the involvement of three nitrogen atoms in the metal coordination environment. The [ZnL] species display a stability constant value, logβ = 7.15, higher than that of protonated species indicative of the involvement of a further nitrogen atom in the metal binding mode. In this complex species, Zn^2+ is bound to four nitrogen atoms with the involvement of two amino and two imidazole (2NH2,2NIm coordination mode). […]
Potentiometric measurements
Potentiometric titrations were carried out on a Titrando 905 automatic, using a combined glass-Ag/AgCl electrode (Metrohm, Switzerland). […] To avoid systematic errors and verify reproducibility, the EMF values of each experiment were recorded at different time intervals. The data were analyzed by […]

- log (Zn2+ complex stability constant) ([1]; species ZnLH 110, [ZnL] (2 His, 2 NH2)): 7.15 (3)
- log (Zn2+ complex stability constant) ([1]; species ZnLH 111 (2 His, NH2)): 13.30 (2)
Substance: HSDPARRGELSVC-C-VSLEGRRAPDSH (disulfide) [d-bdnf]
- competition / additivity on ERK phosphorylation (ERK): neither antagonist nor additive effects
